What was measured:
P. hemolytica [1] = assay: MIC by tube dilution method against P. hemolytica (Example 3); format: cell-based; settings: 24 hours, 37° C.
Description: (§1) In vitro determination of the potency of Isopropyl BM123γ compared with oxytetracycline and gentamicin in selected bacterial isolates by a tube dilution method.
(§2) Serial two-fold dilutions of antibacterial agent are prepared in trypticase soy broth. To each tube containing 5 ml of broth, is added 0.1 ml of 10^-3 dilution of bacterial inoculum, adjusted prior to dilution of 44 percent transmission at 645 m,u. An inoculated broth, containing no drug is included as growth for each strain tested.

P. multocida [2] = assay: MIC by tube dilution method against P. multocida (Example 3); format: cell-based; settings: 24 hours, 37° C.
Description: as §1, §2

P. multocida [3] = assay: In vitro minimal inhibitory concentration against P. multocida isolates (Example 1); format: cell-based
Description: (§3) Minimal inhibitory concentrations (MIC) of eight Pasteurella isolates are also determined.

P. hemolytica [4] = assay: In vitro minimal inhibitory concentration against P. hemolytica isolates (Example 1); format: cell-based
Description: as §3

shipping fever [5] = assay: Efficacy in depressing the body temperature of calves having shipping fever (Example 1); format: in vivo; settings: 13 mg/kg i.m., three or four consecutive days
Text: In vivo activity of BM123γ-hydrochloride and of isopropyl BM123γ for the control of shipping fever in calves.
Two hundred sick calves, with elevated temperatures and clinical signs of shipping fever are chosen for the experiment. The animals are allotted to four groups of 50 calves each. One group serves as nonmedicated, infected controls receiving placebos, the other groups receive intramuscular injections of the respective drugs for three or four consecutive days at the levels indicated in Table 1. […]

Pasteurella = assay: Bacterial isolation from tissues of sacrificed treated calves; format: in vivo; settings: Calf No. 4, 4 days administered
Text: At the end of the experiment, six calves are sacrificed, and animal tissues examined for aerobic and anaerobic bacteria. Pasteurella are isolated and identified from three of the sacrificed calves. No anaerobes are recovered from any tissues.

shipping fever [6] = assay: Gross necropsy findings of sacrificed treated calves; format: in vivo; settings: Calf No. 4 (d), 4 days administered
shipping fever [7] = assay: Control of shipping fever in young cattle: mortality and days to return to normal temperature (Example 2); format: in vivo, calves; settings: 11.0 mg/kg i.m., 3 daily injections
Text: In vivo activity of Isopropyl BM123γ for the control of shipping fever in young cattle as compared to oxytetracycline.
Calves weighing 90.6 to 181.2 Kg received at the feedlot are processed as is normally done, except no antibacterial treatment is given. Processing includes vaccination with Infectious Bovine Rhinotracheitis (Bovine virus Diarrhea) Leptospirosis vaccine, administration of a Clostridium novyi, septicum, sordelli, chauvei bacterin, levamisole (1/2 oblet), i.m. administration of 3 ml of a vitamin A, D and E formulation, a pour-on formulation of 0,0-dimethyl-0-(2,4,5-trichlorophenyl) ester of phosphorothioic acid for the control of grubs and lice, and one DES (diethylstilbestrol) implant in an ear. In addition--and at the same time--the calves are branded, ear tagged, dehorned and castrated where applicable.
One to two days after arrival and processing, sick calves are removed from the holding pens and those with temperatures of 40.0° C. or higher and showing symptoms of respiratory disease are selected for the study.
A total of 300 calves are randomly allotted to four groups of 75 calves each. One group serves as infected unmedicated controls receiving a "blank" solution, the others receive intramuscularly between hip and pin bones, for a total of 3 daily injections of:
a. 11 mg/kg body weight of oxytetracycline, the maximum recommended dose;
b. 0.5 mg/kg body weight of Isopropyl BM123γ; or
c. 1.0 mg/kg body weight of Isopropyl BM123γ.
The preparation and composition of injectables for "b" and "c" are described in Example 5 below.
Temperatures are recorded daily until two successive readings of 39.7° C. or lower are recorded, at which time calves are moved from the "sick" pen to the "recovered" pen. Although some of the "recovered" calves continue to show symptoms of disease, the criterion of body temperature is selected since it is completely objective.
One hundred fifty-four calves are treated the first day, fifty the second and 96 the third day. Following treatment, each animal is observed and its temperature recorded for a total of 14 consecutive days. Each animal which dies is necropsied and duplicate samples of lung and mediastinal lymph node are taken for microbiological examination. Necropsy examinations confirm the presence of severe pneumonia in most animals which died.
These calves died early in the study from conditions which the treatments should not have been expected to control.

Gentamicin was tested. Which MIC (P. hemolytica [1]; isolate No. 1) did it give?
The MIC was 8.0 µg/mL.

What about the MIC (P. hemolytica [1]; isolate No. 2) of the same molecule?
Its MIC is 8.0 µg/mL.

And the MIC (P. hemolytica [1]; isolate No. 3)?
The MIC was 4.0 µg/mL.

What about the MIC (P. hemolytica [1]; isolate No. 4) of the same molecule?
The MIC was 8.0 µg/mL.

What about the MIC (P. hemolytica [1]; isolate No. 5) of the same molecule?
Its MIC is 4.0 µg/mL.

What about the MIC (P. multocida [2]; isolate No. 1) of the same molecule?
Its MIC is 4.0 µg/mL.

And the MIC (P. multocida [2]; isolate No. 2)?
The MIC was 4.0 µg/mL.

And the MIC (P. multocida [2]; isolate No. 3)?
Its MIC is 8.0 µg/mL.

And the MIC (P. multocida [2]; isolate No. 4)?
The MIC was 4.0 µg/mL.

What about the MIC (P. multocida [2]; isolate No. 5) of the same molecule?
Its MIC is 4.0 µg/mL.

And the MIC (P. multocida [2]; isolate No. 6)?
The MIC was 4.0 µg/mL.

And the MIC (P. multocida [2]; isolate No. 7)?
Its MIC is 4.0 µg/mL.

And the MIC (P. multocida [3]; isolate No. 6)?
The MIC was 2 µg/mL.

What about the MIC (P. multocida [3]; isolate No. 7) of the same molecule?
The MIC was 2 µg/mL.

What about the MIC (P. multocida [3]; isolate No. 8) of the same molecule?
The MIC was 2 µg/mL.

What about the MIC (P. hemolytica [4]; isolate No. 1) of the same molecule?
Its MIC is 4 µg/mL.

And the MIC (P. hemolytica [4]; isolate No. 2)?
The MIC was 8 µg/mL.

What about the MIC (P. hemolytica [4]; isolate No. 3) of the same molecule?
The MIC was 2 µg/mL.

And the MIC (P. hemolytica [4]; isolate No. 4)?
Its MIC is 4 µg/mL.

What about the MIC (P. hemolytica [4]; isolate No. 5) of the same molecule?
Its MIC is 4 µg/mL.

Which “Calves below 39.4° C./total, 2 days after last Injection” value (shipping fever [5]) does the source give for CN(C)C1C(=O)C(C(N)=O)=C(O)C2(O)C(=O)C3=C(O)c4c(O)cccc4C(C)(O)C3C(O)C12 (stereo not drawn) [Oxytetracycline] here?
The value was 22/38.

And the “Percent of calves below 39.4° C., 2 days after last Injection” value (shipping fever [5])?
Its value is 58%.

And the “Mean Temperature 2 days after last Injection” value (shipping fever [5]; mean initial 40.7)?
The value was 39.4 °C.

What about the Bacteria isolated (Pasteurella) of the same molecule?
Its Bacteria isolated is “P. Hemolytica + P. multocida”.

And the Total cfu/g (Pasteurella; P. Hemolytica + P. multocida)?
The Total cfu/g was 9.1 × 10^6 cfu/g.

And the “Lung findings at necropsy” value (shipping fever [6])?
The value was “The lungs were consolidated and had miliary abscesses in 60% of their volume”.

What about the “Mortality, Percent” value (shipping fever [7]) of the same molecule?
The value was 5.6%.

What about the “average number of days to return to normal temperature” value (shipping fever [7]) of the same molecule?
Its value is 5.33 days.

And the “Mortality, No. of Animals” value (shipping fever [7]; group of 75)?
Its value is 4 No. of Animals.

And the “Days to Normal, No. of Animals” value (shipping fever [7]; normal = two successive readings of 39.7° C. or lower)?
Its value is 72 No. of Animals.

From patent US4170645A, “Antibacterial agent BM123γ, salts and alkyl derivatives thereof for the control of shipping fever in cattle” (American Cyanamid Company, priority 1978, dated 1979)
